Measurements reported in article PMC4788259 (PLoS Neglected Tropical Diseases, 2016).

test system: E. multilocularis metacestodes; assay: PGI assay: phosphoglucose isomerase release from damaged metacestodes; assay type: cell-based, Echinococcus multilocularis; conditions: 10 μM, 5 days, single wells, relative to DB1127 (10 μM)
Summary of the method: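 E. multilocularis metacestode vesicles (strain H95, grown in BALB/c mice, 2–4 mm diameter) were exposed in vitro to compounds for 5 days. Damage was read as phosphoglucose isomerase released into the medium. Initial screening used 10 μM in single wells, with 0.1% DMSO as negative control. EC50 values were derived from this read-out.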

Going from CCOc1ccc(C2N(C)c3ccccc3N2C)cc1 [MMV075490] to CCOc1ccc(/C=C/c2nc(=O)c3ccccc3o2)cc1 [MMV665940], the “PGI (% of DB1127 at 10 uM)” value falls from 26.52% to -92.49%.

Compared with O=C(NCCCN1CCC(N2CCCCC2)CC1)C1=Cc2cc(Br)ccc2OC1 [MMV019995], N=c1n(CCN2CCCCC2)c2ccccc2n1CC(=O)c1ccc(Cl)c(Cl)c1 [MMV396723] is higher in “PGI (% of DB1127 at 10 uM)” value: 11.48% for the first, 22.11% for the second.

Compared with COc1cc2c3cc1Oc1c(OC)c(OC)cc4c1C(Cc1ccc(O)c(c1)Oc1ccc(cc1)CC3N(C)CC2)N(C)CC4.Cl (stereo not shown) [MMV007474], COc1ccc(CNC2CCN(c3ccc(NC(=O)c4cccc(Cl)c4)cc3)CC2)cc1OC [MMV666067] is lower in “PGI (% of DB1127 at 10 uM)” value: -10.35% for the first, -35.43% for the second.

Going from Cc1ccc(S(=O)(=O)c2c(COC(=O)c3cccc(C)c3)c(-c3ccccc3)nn2C)cc1 [MMV665936] to COc1cc(-c2nc(-c3ccc(Sc4ccccc4)cc3)c(-c3ccccc3)[nH]2)cc(OC)c1O [MMV007273], the “PGI (% of DB1127 at 10 uM)” value rises from -18.54% to -7.16%.

Going from Cc1ccc(OCCCCCCNCCO)c(C)c1 [MMV666020] to O=C(CCl)NCCOc1ccc(Cl)cc1Cl [MMV665927], the “PGI (% of DB1127 at 10 uM)” value rises from 2.96% to 24.95%.

Compared with COC(=O)c1ccc(Cl)c2c1C1C=CCC1C(c1cccc3ccccc13)N2 (stereo not shown) [MMV667489], COc1ccc(C(=O)NC(c2ccccc2Cl)c2cc(Cl)c3cccnc3c2O)cc1 (stereo not shown) [MMV666022] is higher in “PGI (% of DB1127 at 10 uM)” value: 2.16% for the first, 259.47% for the second.

Going from Cc1ccnc(NC(c2cccc(OCc3ccccc3)c2)c2ccc3cccnc3c2O)c1 (stereo not shown) [MMV000720] to COc1ccc(Nc2nc(NCc3ccccc3)c3ccccc3n2)cc1 [MMV000963], the “PGI (% of DB1127 at 10 uM)” value rises from -5.36% to 109.36%.

Compared with CCOc1c(Cl)cc(CNC(C)C(O)c2ccccc2)cc1OC (stereo not shown) [MMV665857], CCOc1cc(CNC(C)C(O)c2ccccc2)cc(Cl)c1OCC (stereo not shown) [MMV396633] is higher in “PGI (% of DB1127 at 10 uM)” value: -30.92% for the first, 30.39% for the second.

Going from Cc1c(C)n(CC(O)CNC2CCCCC2C)c2ccccc12 (stereo not shown) [MMV665806] to COc1cccc(NC(=O)Cn2c(C)c(C#N)c3ccccc32)c1 [MMV665826], the “PGI (% of DB1127 at 10 uM)” value falls from 5.77% to -17.93%.

Compared with CCN(CC)CCNc1ccnc2cc3ccccc3cc12 [MMV006303], CN(C)CCCNc1c2ccccc2nc2ccccc12 [MMV000448] is lower in “PGI (% of DB1127 at 10 uM)” value: -4.34% for the first, -25.46% for the second.

Going from Nc1ccc(-c2nc3cc(Cc4ccc5[nH]c(-c6ccc(N)cc6)nc5c4)ccc3[nH]2)cc1 [MMV665943] to O=C(Nc1ccc(-c2nc3cc4ccccc4cc3[nH]2)cc1)c1cccc(Br)c1 [MMV019241], the “PGI (% of DB1127 at 10 uM)” value falls from 9.49% to -30.92%.

Going from COc1ccc(C(O)(CCC(C)C)C(CN2CCOCC2)c2ccc(Cl)cc2)cc1.Cl (stereo not shown) [MMV000617] to CCCCC(O)(c1ccc(Cl)cc1)C(CN1CCOCC1)c1ccc(Cl)cc1.Cl (stereo not shown) [MMV000619], the “PGI (% of DB1127 at 10 uM)” value rises from -8.60% to -6.41%.

Going from Br.CCN(CC)S(=O)(=O)c1ccc(-c2csc(Nc3ccc(C)c(C)c3)n2)cc1 [MMV009108] to CCc1ccc(Nc2cc(C)nc3nc(C)nn23)cc1 [MMV007374], the “PGI (% of DB1127 at 10 uM)” value falls from 14.04% to 12.73%.

Going from O=C(NCC(c1ccsc1)N1CCCCCC1)c1ccc(C(F)(F)F)cc1 (stereo not shown) [MMV396672] to COc1ccc(N2CCN(C(CNC(=O)CC(C)(C)C)c3ccc4c(c3)OCO4)CC2)cc1 (stereo not shown) [MMV665908], the “PGI (% of DB1127 at 10 uM)” value rises from -34.18% to -6.01%.

Going from CCCN(CCC)CCCNC(=O)c1cc2c(-c3ccc(OC)c(OC)c3)nn(C)c2s1 [MMV000561] to CCCN(CCC)CC(O)COc1ccccc1C(=O)Nc1ccccc1 (stereo not shown) [MMV006455], the “PGI (% of DB1127 at 10 uM)” value falls from -1.54% to -26.39%.

Going from CSc1ccccc1C(=O)Nc1nc(-c2ccccn2)cs1 [MMV001246] to O=C(c1ccccc1F)N(Cc1ccc(Cl)cc1)c1ccccn1 [MMV665899], the “PGI (% of DB1127 at 10 uM)” value falls from -29.53% to -103.42%.

Going from Cc1cc(Nc2ccc(Cl)cc2)n2nc(C(F)(F)F)nc2n1 [MMV011256] to CCOc1ccc(Nc2ccnc3cc(Cl)ccc23)cc1 [MMV007285], the “PGI (% of DB1127 at 10 uM)” value rises from -32.20% to -9.06%.

Going from Cc1nc2ccccc2c(O)c1CC=C(Cl)Cl [MMV665994] to COc1ccc2nc(N)nc(C)c2c1 [MMV665897], the “PGI (% of DB1127 at 10 uM)” value falls from 45.96% to -26.21%.

First: O=C(CCc1ccccc1)c1ccccc1OCC(O)CN1CCCCC1 (stereo not shown) [MMV009015]
Second: COc1ccccc1CNC(=O)CCn1c(=O)[nH]c2ccccc2c1=O [MMV665916]
The “PGI (% of DB1127 at 10 uM)” value of the first is higher: 4.79% for the first, -47.23% for the second.

Going from O=C(NCc1ccco1)C1CCN(S(=O)(=O)c2ccc(Br)cc2)CC1 [MMV007430] to O=C(CCc1ccco1)NC1CCN(CC2(c3ccc(Cl)cc3)CCC2)CC1 [MMV666108], the “PGI (% of DB1127 at 10 uM)” value falls from -0.53% to -18.89%.

Going from Fc1ccc2[nH]c3c(NCCCN4CCOCC4)ncnc3c2c1 [MMV019871] to COCCNC(=O)c1ccc(OC2CCN(Cc3ccc(F)c(F)c3)CC2)c(Cl)c1 [MMV666072], the “PGI (% of DB1127 at 10 uM)” value falls from -31.05% to -116.21%.

First: CCn1c(SCC(=O)Nc2cc(C(F)(F)F)ccc2Cl)nc2ccccc2c1=O [MMV666103]
Second: COc1ccc(-n2ccnc2SCC(=O)Nc2cc(C)ccc2C)c(OC)c1 [MMV019258]
The “PGI (% of DB1127 at 10 uM)” value of the first is lower: -111.41% for the first, -33.26% for the second.

Compared with Oc1ccc(-c2nc(-c3ccc4oc5ccc(-c6[nH]c(-c7ccc(O)cc7)nc6-c6ccccc6)cc5c4c3)c(-c3ccccc3)[nH]2)cc1 [MMV000753], COc1ccc(C(C)=O)cc1N1C(=O)C2C(C1=O)C1(c3ccccc3)C(=O)C2(c2ccccc2)C(c2ccc(C)cc2)=C1c1ccc(C)cc1 (stereo not shown) [MMV007695] is higher in “PGI (% of DB1127 at 10 uM)” value: -5.15% for the first, 4.56% for the second.

Compared with COc1cc2cc(C(=O)Nc3ccccc3)c(N)nc2cc1OC [MMV006767], COc1cccc(Nc2nc(N)c3ccccc3n2)c1.Cl [MMV019199] is lower in “PGI (% of DB1127 at 10 uM)” value: -7.82% for the first, -26.29% for the second.

First: CC1CC(C)CN(C(=O)c2ccc(Cl)cc2Cl)C1 (stereo not shown) [MMV001344]
Second: COc1ccc(C(=O)C2CC2c2ccc(Cl)cc2)cc1 (stereo not shown) [MMV665924]
The “PGI (% of DB1127 at 10 uM)” value of the first is lower: -22.37% for the first, -13.71% for the second.

Compared with Cc1ccc2c(C)nc(Nc3nc(C)cc(-c4ccccc4)n3)nc2c1 [MMV007041], Nc1nc(Nc2cccc(F)c2)nc2ccccc12 [MMV080034] is lower in “PGI (% of DB1127 at 10 uM)” value: -2.18% for the first, -19.84% for the second.

Going from O=C1c2ccc3c4c(ccc(c24)C(=O)N1CCCCO)C(=O)N(CCCCO)C3=O [MMV009085] to COc1ccccc1CNC(=O)CCn1c(=O)[nH]c2ccsc2c1=O [MMV019066], the “PGI (% of DB1127 at 10 uM)” value falls from -6.63% to -44.92%.

Going from CCOC(=O)C1CCN(C(=O)CN2C(=O)c3ccccc3C2c2c[nH]c3ccccc23)CC1 (stereo not shown) [MMV011576] to Cc1ccc(C2CC(C(F)(F)F)n3nc(C(=O)N4CCN(C(c5ccccc5)c5ccccc5)CC4)cc3N2)cc1 (stereo not shown) [MMV000699], the “PGI (% of DB1127 at 10 uM)” value rises from -33.19% to -1.50%.

Going from COc1ccc(C=C2SC(Nc3ccc(F)cc3)=NC2=O)c(OC)c1 [MMV084434] to CCOC(=O)c1cnc2ccc(OC)cc2c1Nc1ccc(N2CCN(C)CC2)cc1 [MMV000704], the “PGI (% of DB1127 at 10 uM)” value rises from 7.76% to 8.26%.

First: COc1ccc2nc(C)cc(Nc3cccc(O)c3)c2c1.Cl [MMV008212]
Second: C=CC12CCN(CC1)C(C(O)c1ccnc3ccc(OC)cc13)C2.Cl (stereo not shown) [MMV665782]
The “PGI (% of DB1127 at 10 uM)” value of the first is higher: -12.96% for the first, -43.49% for the second.

Going from Cc1cc(C=C2SC(=Nc3ccccc3)N(C3CCCC3)C2=O)c(C)n1-c1ccc(Cl)cc1 [MMV666688] to Cc1c(C)n(Cc2ccc(F)cc2)c2ccc(C(=O)NCc3ccco3)cc12 [MMV008149], the “PGI (% of DB1127 at 10 uM)” value rises from -35.93% to -33.19%.

First: CCOc1cc2c(cc1OCC)C(c1cc(OC)c(O)cc1Cl)NCC2 (stereo not shown) [MMV008956]
Second: CCOc1cc2c(cc1OCC)C(c1cc(Cl)ccc1O)NCC2 (stereo not shown) [MMV000478]
The “PGI (% of DB1127 at 10 uM)” value of the first is lower: -28.84% for the first, 32.45% for the second.

First: CC(C)OCc1cc(CN2CCN(c3cccc(Cl)c3)CC2)c(O)c2ncccc12 [MMV000788]
Second: O=C(Nc1ccc(Cl)cc1)N1CCN(c2ccc3nncn3n2)CC1 [MMV665917]
The “PGI (% of DB1127 at 10 uM)” value of the first is higher: -14.40% for the first, -87.17% for the second.

Compared with O=[N+]([O-])c1ccc(C=NNc2nc3ccccc3[nH]2)cc1 [MMV666607], Cc1sc2ncnc(Sc3nc4ccccc4[nH]3)c2c1C [MMV019266] is higher in “PGI (% of DB1127 at 10 uM)” value: -48.05% for the first, -32.46% for the second.

Compared with CCCCCCc1cc2cc(-c3csc(C=Cc4ccccc4)n3)c(=O)oc2cc1O [MMV666692], COc1cc(OC)c(N(C)C(=O)c2cc3c(s2)-c2ccccc2S(=O)(=O)C3)cc1Cl [MMV006427] is lower in “PGI (% of DB1127 at 10 uM)” value: -4.22% for the first, -47.62% for the second.

Compared with OC1CCCCC1C1(NC(=S)Nc2ccccc2)CCCCC1 (stereo not shown) [MMV665980], CC(=O)c1sc(NC(=O)Nc2ccc(C)cc2C)nc1C [MMV665894] is higher in “PGI (% of DB1127 at 10 uM)” value: -9.51% for the first, -2.69% for the second.

In the case of COCCN(C(=O)Cc1cccs1)C(C(=O)NCc1ccc(OC)cc1)c1ccc(C(C)C)cc1 (stereo not shown) [MMV666105], the “PGI (% of DB1127 at 10 uM)” value is reported as -124.48%.
